The source of these data is paper PMC11820736, “Design, Synthesis, and Anti-Tyrosinase, Anti-Melanogenic, and Antioxidant Activities of Novel (Z)-3-Benzyl-5-Benzylidene-2-Thioxothiazolidin-4-One Analogs” (Molecules, 2025).

The test system of data set [1] is B16F10 cells. Description: Cytotoxicity assay on B16F10 murine melanoma cells (EZ-Cytox). Particulars: 1, 2, 5 and 10 μM, 72 h. It counts as cell-based. How it is done:
Cell viability for analogs 1–3 was examined on B16F10 cells at 1, 2, 5, and 10 μM concentrations for 72 h.
The influence of (Z)-BBTT analogs 1–3 on B16F10 cell viability was studied using an EZ-Cytox solution (EZ-1000®, DoGenBio, Seoul, Republic of Korea). B16F10 cells were seeded at a density of 1 × 10^3 in each well of a 96-well plate, and the plate was cultivated under normal cell culture conditions for 24 h. Analogs were added to each well at concentrations of 0, 1, 2, 5, and 10 μM, and then cells were cultivated for 72 h under normal cell culture conditions. An aliquot (10 μL) of the EZ-Cytox solution was added to each well and cultivated for 2 h. Well absorbance was recorded at 450 nm using a VE microplate reader to calculate cell viability.

The next data set relates to HaCaT cells. Description: Cytotoxicity assay on HaCaT cells (EZ-Cytox). The class given is cell-based, human. The following applies: 2, 5, 10 and 20 μM, 72 h. How it is done:
As keratinocytes are one of the major cells that constitute the epidermis, the effects of analogs 1–3 on HaCaT (immortalized human keratinocytes) cell viability were investigated. Analogs 1–3 were tested at concentrations of 0, 2, 5, 10, and 20 μM, and cell viability was determined 72 h after incubation.
The effect of (Z)-BBTT analogs 1–3 on HaCaT cell viability was examined using EZ-Cytox solution. HaCaT cells were seeded at a density of 1 × 10^3 in each well of a 96-well plate, and the plate was cultivated under normal cell culture conditions for 24 h. Analogs 1–3 were added to each well at concentrations of 0, 2, 5, 10, and 20 μM and then cultivated for 72 h under normal cell culture conditions. An aliquot (10 μL) of the EZ-Cytox solution was added to each well and cultivated for 2 h. Well absorbance was recorded at 450 nm using a VE microplate reader to calculate HaCaT cell viability.

Data set [2] has as its target T1, B16F10 cellular tyrosinase (Mus musculus, UniProt P11344).
T1 construct: endogenous in cells; host or cells: B16F10 murine melanoma cells stimulated with α-MSH and IBMX
T1 sequence (P11344 19-533): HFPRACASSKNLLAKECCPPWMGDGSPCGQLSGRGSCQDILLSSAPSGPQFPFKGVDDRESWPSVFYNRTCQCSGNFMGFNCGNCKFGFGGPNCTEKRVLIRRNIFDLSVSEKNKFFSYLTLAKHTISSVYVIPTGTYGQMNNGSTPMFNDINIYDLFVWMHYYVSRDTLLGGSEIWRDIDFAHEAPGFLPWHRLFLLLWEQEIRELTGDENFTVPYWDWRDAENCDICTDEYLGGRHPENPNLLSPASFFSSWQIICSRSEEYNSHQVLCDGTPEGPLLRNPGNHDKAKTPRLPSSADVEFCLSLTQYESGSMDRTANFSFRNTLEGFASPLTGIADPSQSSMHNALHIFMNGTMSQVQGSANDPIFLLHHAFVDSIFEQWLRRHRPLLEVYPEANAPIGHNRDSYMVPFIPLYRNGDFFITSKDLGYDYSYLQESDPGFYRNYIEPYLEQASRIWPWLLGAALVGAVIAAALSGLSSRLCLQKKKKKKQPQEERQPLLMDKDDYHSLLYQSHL
Put plainly: Cellular tyrosinase activity measurement in B16F10 cells. It counts as cell-based, murine. The following applies: α-MSH + IBMX, 72 h. The procedure:
The cellular tyrosinase inhibitory activity of the test samples was determined by measuring their optical density at 475 nm 72 h after test sample treatment.
B16F10 cells were seeded at a density of 5000 per well of a 6-well plate, and the plate was cultivated under normal cell culture conditions for 24 h. […] Stimulators (200 μM IBMX and 1 μM α-MSH) were added to each well and cultivated for 72 h under normal cell culture conditions. To determine cellular tyrosinase activity, the cells were washed twice with PBS, treated with lysis buffer solution (100 μL) comprising 50 mM phosphate buffer (pH 6.5) (90 μL), 2 mM phenylmethanesulfonyl fluoride (5 μL), and 20% Triton X-100 (5 μL), and incubated at −80 °C for 30 min. After centrifugation (10,000× g, 4 °C, and 10 min), the supernatants (80 μL each) were transferred to each well of a 96-well plate, then 10 mM L-DOPA (20 μL) was added to each well. The absorbance was measured at 475 nm at 1 min intervals for 10 min using a VE microplate reader to determine cellular tyrosinase activity.

Data set [3] relates to B16F10 cells. Description: Cellular melanin level measurement in B16F10 cells. It counts as cell-based, murine. The following applies: α-MSH + IBMX, 72 h. The procedure: Stimulators comprising 1 μM α-melanocyte-stimulating hormone (α-MSH) and 200 μM 3-isobutyl-1-methylxanthine (IBMX) were administered 1 h after test sample treatment. The effects of analogs 1 and 3 on melanin production were determined by measuring the optical density at 405 nm after 72 h of treatment.
B16F10 cells were seeded at a density of 5000 per well of a 6-well plate, and the plate was cultivated under normal cell culture conditions for 24 h. […] In addition, 200 μM IBMX and 1 μM α-MSH (Alomone Labs™, Jerusalem, Israel) were added to each well and cultivated for 72 h under the normal cell culture conditions. To determine the cellular melanin levels, 1N–NaOH solution (100 μL) was added to each well and then kept at 60 °C for 1 h to lyse the cells. The cell lysates were washed twice with phosphate-buffered saline (PBS) and transferred to a 96-well plate, and the absorbance was recorded at 405 nm using a VE microplate reader to determine the cellular melanin content.

Data set [4] can be described thus: ABTS cation radical scavenging activity. Particulars: 100 μM, 2 min in the dark. The procedure: To measure the scavenging effects of analogs 1–12 on ABTS^+ radicals, ABTS was initially treated with potassium persulfate to yield ABTS^•+. The formed ABTS^+ radical solution was mixed with test samples (analogs 1–12 and Trolox [positive reference standard]; final concentration: 100 μM), and absorbance was measured at 732 nm after storing for 2 min in the dark to determine %ABTS^•+-scavenging ability.
ABTS^•+ was prepared by mixing equal amounts of ABTS (14 mM in H2O) and K2S2O8 (4.9 mM in H2O) and storing in the dark at 20 °C for 16 h. Prior to use, the absorbance of the prepared ABTS^•+ solution was adjusted to 0.7 ± 0.02 at 732 nm by dilution with methanol. A cosolvent (EtOH:DMSO = 10:1 [v/v]) was used to prepare solutions of the test samples (analogs 1–12 and Trolox [positive reference standard]). All test samples were used at a final concentration of 100 μM. The test sample solution (10 μL) was mixed with the adjusted ABTS^•+ solution (90 μL) in each well of a 96-well plate, and the mixture was kept in the dark at 20 °C for 2 min. The absorbance was recorded at 732 nm at 1 min intervals for 10 min using a VE microplate reader. The percentage of radical-scavenging activity was calculated using the formula % radical-scavenging activity = [(Abscontrol − Abssample)/Abscontrol] × 100, where Abssample and Abscontrol are absorbances of the sample and control, respectively.

Where [5] appears, read: 2, 5 and 10 μM, concentration-dependent.

Entries after “also recorded” stand apart in the source; their conditions may differ.

Turning to `O=C1/C(=C/c2ccc(O)cc2O)SC(=S)N1Cc1ccccc1` [Compound 3, (Z)-3-Benzyl-5-(2,4-dihydroxybenzylidene)-2-thioxothiazolidin-4-one], in the data set on B16F10 cells [1], the “cytotoxicity to B16F10 cells” value was “not cytotoxic; also recorded: no perceptible cytotoxicity”. Besides, the “cytotoxicity to HaCaT cells” value in the data set on HaCaT cells was “no perceptible cytotoxicity”. For the same molecule, the “inhibition of cellular tyrosinase activity compared with kojic acid” value in data set [2] (10 μM) was “more strongly than kojic acid”. The “effect on stimulator-enhanced cellular tyrosinase activity” value in data set [2] (setting [5]) was “significantly decreased”. Besides, the “inhibition of melanin production compared with kojic acid at the same concentration” value in the data set with B16F10 cells [3] (10 μM) is “significantly more potently than kojic acid”. For the same molecule, in the data set on B16F10 cells [3] (setting [5]), the “effect on stimulator-induced increase in melanin contents” value is recorded as “significantly decreased”. Moreover, in the data set with B16F10 cells [3] (analog at 2 μM), the “melanin content compared with 10 μM kojic acid” value is on record as “more weakly than 10 μM kojic acid”. In addition, the “% ABTS^•+ scavenging” value in data set [4] is 98%.
